Laboratory results reported in ChEMBL document CHEMBL5370668, “Expected and Unexpected Products from the Biochemical Oxidation of Bacterial Alkylquinolones with CYP4F11” (2023).
The source made the active and inactive calls. The calls are words filed in the database; no cut-off is given here.

Tests used:
Staphylococcus aureus = test: Antimicrobial activity against Staphylococcus aureus ATCC 12600 assessed as zone of inhibition at 60 ug incubated overnight by agar well diffusion assay; format: functional; conditions: read-out: DIZ
[1] = test system: Staphylococcus epidermidis; test: Antimicrobial activity against Staphylococcus epidermidis ATCC 14990 assessed as zone of inhibition at 60 ug incubated overnight by agar well diffusion assay; format: functional; conditions: read-out: DIZ
Candida albicans = test: Antibiofilm activity against Candida albicans assessed as reduction in biofilm formation at 100 uM incubated for 48 hrs by XTT biofilm assay; format: functional, organism-based

Compound	zone of inhibition at 60 µg/disc (Staphylococcus aureus) [mm]	zone of inhibition at 60 µg/disc [1] [mm]	Activity (Candida albicans)
O=c1cc(CCCCCCCCCCO)[nH]c2ccccc12	0	0	inactive
CC(=O)OCCCCCCCCCCc1cc(=O)c2ccccc2[nH]1	10	10	
CCCCCCCc1cc(=O)c2ccccc2[nH]1	13	13	Active
CCCCCCCCc1cc(=O)c2ccccc2[nH]1	11	12	Active
CCCCCCCCCCc1cc(=O)c2ccccc2[nH]1	10	12	Active
CC1(C)S[C@@H]2[C@H](NC(=O)Cc3ccccc3)C(=O)N2[C@H]1C(=O)O [PENICILLIN G]	41	38	
O=c1cc(CCCCCCCO)[nH]c2ccccc12	0	0	inactive
CC(=O)OCCCCCCCc1cc(=O)c2ccccc2[nH]1	8	7	
O=c1cc(CCCCCCCCCO)[nH]c2ccccc12	0	0	inactive
CCCCCCCCCc1cc(=O)c2ccccc2[nH]1	12	12	Active
CC(=O)OCCCCCCCCCc1cc(=O)c2ccccc2[nH]1	11	11	
CCCCCc1cc(O)c2ccccc2n1	13	14	Active
CC(=O)OCCCCCCCCc1cc(=O)c2ccccc2[nH]1	9	9	
O=c1cc(CCCCCCCCO)[nH]c2ccccc12	0	0	
